Test results as given in patent US20260191817A1, “FIBROBLAST MODULATORS IN STROMA-RICH TUMORS” (UNIVERSITEIT GENT, priority 2022, published 2026).
“Also recorded” adds a separate entry of the source.

Legend:
CAF03 glioblastoma CAFs = experiment: AFM spheroid stiffness, CAF03 glioblastoma CAFs; assay type: cell-based; conditions: 1 μM, 48 h
Text: (§1) It is well established that an increased tumor and ECM stiffness is associated with a negative prognosis as it promotes tumor growth, progression, therapy resistance, immunosuppression and metastasis. Stiffness is chiefly regulated by the action of the CAFs in the TME. Stiffness modulation is, therefore, a fitting read-out of activity in a screen for CAF modulators. To assess stiffness modulation, the stiffness of spheroids of CAF cells treated with test compounds was interrogated using atomic force microscopy (AFM) indentation and compared with untreated cells. AFM measurement of the stiffness (elasticity) of cells and spheroids is a technique well-known to those skilled in the art. AFM measures the force required to create a given deflection, this read-out is also known as the Young's modulus. AFM is widely used in biology and cancer research: altered physicochemical properties of live cells serve as a read-out of altered complex physiological processes.
(§2) U-shaped, 384-well ULA plates (cat. no. MS-9384UZ, S-bio) were seeded with a suspension of cell-specific culture media with cells. Cells were allowed to form spheroids for an appropriate time under treatment conditions before use in experiments. Cell culture dishes (cat. no. 734-2814, VWR) were filled with collagen gel and placed at 37° C. for an appropriate time to allow solidification. For each condition, spheroids were pooled in one cell culture dish. The medium was removed (stored at 37° C.) to promote attachment of the bottom of each spheroid to the collagen gel. The cell culture dishes were incubated at 37° C. After the incubation period, the stored medium was carefully (prevent detachment of spheroids) added to the dishes.
(§3) Mechanical measurements were performed using an atomic force microscope. To indent the spheroids an in-house made colloidal probe was used. Force curves were collected using an appropriate setpoint and probe speed (depending on the stiffness of the spheroids). On each spheroid multiple force curves were collected. Collected curves were then processed using the JPK DP software. Young's modulus was extracted from the force curves. All experiments were performed in biological triplicate.
(§4) To generate 3D cultures mimicking the complexity and pathophysiology of in vivo tumors, spheroids were used (cfr. point 4). Spheroids are considered to better simulate cellular heterogeneity, nutrient and oxygen gradients, cell-cell interactions, cell-matrix interactions, gene expression profiles, stromal interactions, therapeutic responses, multicellular resistance, drug penetration and anti-apoptotic signaling.

[1] = system: 13B2 hTERT, CT5.3 hTERT, HCA2 hTERT, MCF-7/6 and 4T1-Luc cells; experiment: 3D CellTiter-Glo Cell Viability Assay (spheroids); assay type: cell-based; conditions: 3D spheroids; up to 100 μM; 48 h
Procedure: (§5) The half maximal inhibitory concentration (IC50) of A1 was evaluated using a CellTiter-Glo® 2.0 Cell Viability Assay (cat. no. G9243, Promega) and a CellTiter-Glo® 3D Cell Viability Assay (cat. no. G9681, Promega). 13B2 hTERT cells (2D: 2×10^5, 3D: 8×10^4) were plated in each well of a Nunc™ MicroWell™ 96-Well, Nunclon Delta-Treated, Flat-Bottom Microplate (cat. no. 167008, Thermo Fisher Scientific) for 2D experiments or 96-well ULA plate (cat. no. MS-9096UZ, S-bio) in a volume of 90 μL/well. A1 was serially diluted in the appropriate medium to 10× the final concentrations. For each treatment condition, 10 μL was added to 3 replicate wells (final concentrations ranging from 1-100 μM) and plates were incubated for 48 h.
(§6) The CellTiter-Glo Cell Viability Assay was performed according to manufacturer's instructions. Briefly, the plates and the CellTiter-Glo® Reagent were equilibrated to room temperature (RT). The CellTiter-Glo® Reagent was added to each well in a 1:1 (v/v) ratio. For 2D experiments, cell lysis was induced by placing the plates on an orbital shaker for 2 min, followed by stabilization of the luminescent signal for 10 min. […] Afterwards, the luminescence was measured using a Synergy™ HTX Multi-Mode Microplate Reader (BioTek). The IC50 value was determined using the Graphpad Prism software. […]

4T1-Luc aggregates = experiment: Chick heart invasion (CHI) assay with 4T1-Luc aggregates; assay type: cell-based, mouse; conditions: 1 μM, in duplo
Procedure: Chick heart invasion assays were performed as described earlier (Bracke et al. 2014). Precultured heart fragments of 9-day-old chicken embryos were confronted with MCF-7/6 aggregates on top of a semi-solid agar at 37° C. overnight, after which the confronting pairs were cultured in suspension for 8 days at 37° C., 10% CO2 in presence or absence of a test compound (in duplo). This procedure can also be performed with aggregates of 4T1-Luc cells, for which the suspension culture of the confronting pairs is performed for 3.5 days. All compounds were evaluated at 1 μM and 100 nM; depending on the outcome higher or lower concentrations were subsequently evaluated. […] Sections of the confrontation cultures were stained with hematoxylin-eosin are blinded and scored by a trained person (Bracke et al., 2014).
In the chick heart invasion assay cancer cells are confronted with a fragment of normal tissue, so as not to neglect the contribution of the host tissue in the micro-ecosystem that governs tumor behavior. […] After eight days for MCF-7/6, or another period depending on the cell type, the interaction between the cancer cells and the PHF is evaluated histologically and classified along a 5-grades subjective scale (Bracke et al. 2014). […] Compounds that inhibit invasion of confronting cancer cells i.e. from III/IV to 0/I/II, are determined as anti-invasive. […]

[2] = system: 13B2 hTERT, CT5.3 hTERT, HCA2 hTERT, MCF-7/6 and 4T1-Luc cells; experiment: 2D CellTiter-Glo Cell Viability Assay; assay type: cell-based; conditions: 48 h of treatment
Procedure: as §5, §6

13B2 hTERT breast CAFs = experiment: AFM spheroid stiffness, 13B2 hTERT breast CAFs; assay type: cell-based, human; conditions: for Young's modulus / spheroid stiffness: 1 μM, 48 h during spheroid formation
Text: as §1, §2, §3, §4

| SMILES | spheroid stiffness (CAF03 glioblastoma CAFs) | response of cells cultured as spheroids (viability) [1] | Histological invasion grade (4T1-Luc aggregates) | IC50 value, metabolic activity of 2D cultures [2] | Young's modulus / spheroid stiffness, concentration range (13B2 hTERT breast CAFs; 30 nM-3 μM, 48 h) | Young's modulus / spheroid stiffness (13B2 hTERT breast CAFs) |
| --- | --- | --- | --- | --- | --- | --- |
| COc1cc(C(=O)/C=C/c2ccc(F)cc2)cc(OC)c1OC [Compound A1, 3-(4-Fluorophenyl)-1-(3,4,5-trimethoxyphenyl)prop2-en-1-one] | decreased; also recorded: active | no response | I/II-III | high micromolar | dose-response behavior | significant decrease; also recorded: active |
| COc1cc2oc(-c3ccc(F)cc3)cc(=O)c2c(OC)c1OC [Compound B1, 2-(4-Fluorophenyl)-5,6,7-trimethoxy-4H-chromen-4-one] | active | no response | II/II | high micromolar | – | significant decrease; also recorded: active |
